These results are taken from patent publication US11026906B2 (priority 2016, dated 2021).

Molecules are shown by their SMILES. Entries after “also recorded” stand apart in the source; their conditions may differ. Read-outs that look alike come from different tables or passages of the source. Bounds are passed on as bounds.

The conditions of data set [1]: in vivo; cited from earlier work.
A short description of data set [2]: Stability of the compositions (storage, light, heating under vacuum).
For data set [3] the following is noted: for Area under the curve (AUC0-∞), Mean / Half-life (T1/2), Mean / Oral Bioavailability, Mean / Rate of elimination (K), Mean / Maximum serum concentration (Cmax), Mean: 10 subjects; for Maximum serum concentration (Cmax), Mean: fasted. From the text:
The study was approved by an Institutional Review Board. […] Each provided informed consent to participate in the study.
On the day of dose administration, the subjects arrived at the clinic fasted. Their qualifications for enrollment were reviewed to ensure compliance. Immediately prior to administration of the test article, an indwelling venous catheter was placed and a blood sample was withdrawn into a trace metal-free tube (the t=0 sample). […] After drinking the test article solution, fasting continued for 2 hours. During the day, however, subjects were provided usual and customary meals. Potential adverse events were monitored.
Each blood sample was stored appropriately until all samples had been collected for the day. Then the blood samples were centrifuged to separate the serum, and each serum sample was transferred into two trace metal-free vials. The vials were shipped to an independent analytical laboratory for serum strontium analyses.
One week later, on the day of dose administration, the same subjects arrived at the clinic fasted. Their qualifications for enrollment were reviewed to ensure compliance. Immediately prior to administration of the test article, an indwelling venous catheter was placed and a blood sample was withdrawn into a trace metal-free tube (the t=0 sample). […] After drinking the test article solution, fasting continued for 2 hours. During the day, however, subjects were provided usual and customary meals. Potential adverse events were monitored.

Data set [4] deals with subject with osteonecrosis of the jaw and osteoarthritis. As to the kind of experiment: Efficacy study in one subject: daily oral strontium L-lactate. The format is in vivo, human. As to the method:
Likewise, today there are no effective treatments for osteonecrosis of the jaw caused by lengthy use of bone resorption inhibitors (anti-resorptives). […] The test subject experienced deterioration of the jawbone sufficient to loosen their teeth and cause pain when chewing. They received a 200 mg dose of strontium as the L-lactate each day, taken separately from food. […] Over a 3-month period, the subject receiving this treatment experienced a restoration of the jawbone sufficient to set the teeth more firmly and reduce the pain associated with chewing. […] The benefits were so remarkable that the subject continued treatment for at least 8 months, with continuing resolution of the bone and cartilage defects.
A subject suffered from latent osteonecrosis of the jaw as a result of several years of alendronate treatment for osteoporosis. In addition to loose teeth and jaw pain during chewing due to the osteonecrosis, they suffered from osteoarthritis. Their dentist advised them that the necrosis was so serious they would lose several teeth and might have to change from a normal diet to a soft-food diet. Their arthritis was so severe that they had to give up crocheting and knitting, hobbies they had enjoyed for many years. […] They requested access to strontium L-lactate of the present invention. […] Their treatment continued for 8 months with similar improvements.

Data set [5] relates to subjects with femoral neck BMD less than 0.600 g/cm^2. As to the kind of experiment: Double-blind clinical study, non-vertebral fractures over 3 year follow-up (expected results). The following applies: 200 mg strontium daily vs placebo.
From the text: In a double-blind clinical study, 80 subjects are divided into two groups (n=40). The control group receives a daily supplement containing 1.8 g of sodium L-lactate (placebo). […] All non-vertebral fractures will be recorded with the exception of the coccyx, skull, jaw, face, phalanx (fingers and toes) and ankle, since these latter are not regarded as being related to osteoporosis.
The conditions of data set [6]: daily doses of 0.3-0.6 grams; cited from earlier work.
For data set [7], the system named is men and women having low bone mass. The settings on record: cited from earlier work.
The mark [8] stands for this setting: about 200 mg strontium per day orally, after 3 months.

`C[C@@H](O)C(=O)O` [D-lactate]: the “blood concentration causing acidosis and encephalopathies” value in data set [1] was not below 3000 µM.
For `C[C@H](O)C(=O)[O-].C[C@H](O)C(=O)[O-].O.O.O.[Sr+2]` [strontium L-lactate trihydrate], in data set [2], the “stability on exposure to light” value is reported as “stable”. Further, the stability during storage result in data set [2] (25° C./60% relative humidity) is reported as “stable”. In data set [2] (solid heated under vacuum, about 100° C. to about 130° C.), the racemization on heating result is “No racemization”.
As to `C[C@H](O)C(=O)[O-].C[C@H](O)C(=O)[O-].[Sr+2]` [strontium L-lactate], the “average serum concentration of strontium compared with strontium ranelate” value in data set [3] (170 mg dose of strontium as L-lactate vs 680 mg dose of strontium as ranelate (U.S. Pat. No. 7,595,342)) is given as “approximately equaled the serum concentration of strontium achieved by ingesting a 680 mg dose of strontium as the ranelate; also recorded: approximately equal to the serum concentrations of strontium provided by 680 mg of water-insoluble strontium ranelate”. Further, in data set [3] (after ingesting a solution of strontium L-lactate in water), the “time at which average serum strontium concentration reached a maximum” value is “about 3 hr”. Further, the adverse effects entry in data set [3] (after ingesting any of three escalating doses (170, 340, 680 mg strontium)) was “no adverse effects”. Besides, in data set [3] (oral dose 170 mg strontium), the “Area under the curve (AUC0-∞), Mean” value is 47.8 mg Sr/L · h; the “Half-life (T1/2), Mean” value was 12.3; the “Oral Bioavailability, Mean” value is given as 0.94; the “Rate of elimination (K), Mean” value stood at 0.06 h⁻¹. Also, in data set [3] (oral dose 340 mg strontium), the “Area under the curve (AUC0-∞), Mean” value amounted to 115.6 mg Sr/L · h; the “Half-life (T1/2), Mean” value was 12.1; the “Oral Bioavailability, Mean” value is 0.93; the “Rate of elimination (K), Mean” value worked out at 0.06 h⁻¹. In addition, in data set [3] (oral dose 680 mg strontium), the “Area under the curve (AUC0-∞), Mean” value is on record as 185.0 mg Sr/L · h; the “Half-life (T1/2), Mean” value is listed as 14.0; the “Oral Bioavailability, Mean” value is recorded as 0.94; the “Rate of elimination (K), Mean” value was determined as 0.05 h⁻¹. Besides, in data set [3] (single oral dose 340 mg strontium as strontium L-lactate in 100 mL water), the “Maximum serum concentration (Cmax), Mean” value came out at 6.3 mg Sr/L. In addition, the “Maximum serum concentration (Cmax), Mean” value in data set [3] (single oral dose 680 mg strontium as strontium L-lactate in 100 mL water) is 9.3 mg Sr/L. The side effects entry in data set [4] (200 mg strontium per day, at least 8 months) is listed as “no side effects”. Further, in data set [4] (setting [8]), the “osteoarthritis: stiffness, pain, flexibility of hands” value is “increased flexibility of osteoarthritic hands and fingers; also recorded: the stiffness and pain of their osteoarthritis had significantly abated”; the “osteonecrosis of the jaw: teeth setting and pain when chewing” value is “reduced the injury and pain associated with osteonecrosis of the jaw; also recorded: their teeth were more set in their jawbone and that they experienced less pain when chewing”. For the same molecule, the non-vertebral fractures result in data set [5] is listed as “significant reduction in all non-vertebral fractures”.
`CC(O)C(=O)[O-].CC(O)C(=O)[O-].[Sr+2]` (centres unmarked) [strontium lactate]: the “albumin in the urine” value in data set [6] is “decrease albumin in the urine”.
As to `N#Cc1c(N(CC(=O)[O-])CC(=O)[O-])sc(C(=O)[O-])c1CC(=O)[O-].[Sr+2].[Sr+2]` [strontium ranelate], the incidence of fractures entry in data set [7] (daily dose of 2 grams (680 mg strontium), almost a decade of clinical use) is “significantly reduced incidence of fractures”. Moreover, the “side effects of therapeutic doses of the strontium ion” value in data set [7] (human exposure) is given as “does not cause gastric irritation, esophageal cancer, colon cancer, or osteonecrosis of the jaw”.
Take `O=C([O-])CCC(=O)[O-].[Sr+2]` [strontium succinate]: the “benefit in treating osteoporosis” value in data set [7] (daily dose of 1.7 grams (680 mg strontium)) is “highly beneficial in treating osteoporosis”.
